Measurements reported in patent US10471054B2, “CDK1 inhibitors of acetyl chrysin mannich base derivatives, synthesis and use thereof” (priority 2016, dated 2019).
Like-named read-outs stand apart in the source and are kept apart here.

Tests used:
[1] = Pharmacokinetics by oral in monkey (urine drug concentration-time curve); type: in vivo; details: for Tmax: po
Experimental: Chromatographic conditions and the system applies: with C18 chromatographic column (acid the tall secretory effect, 5 μm, 4.6*150 mm), in acetonitrile-methanol-water-mesylate (25:20:55:0.15) as mobile phase, detection UV 283 nm, the velocity 1 ml/min, and the sample volume 20 μl. The theoretical plate number is not less than 2000 according to CH-j peak.
Sample solution: after the macaques were drugged, the catheter was inserted. The urine by oral CH-j 5 mg/kg is collected, added the methanol at 1:4 (v:v), centrifuge and remove the liquid to measure. Control solution is CH-j methanol solution 5 μg/ml. The log P of CH-j is larger, the fat solubility strong, and absorption distribution in the body very rapid, the urine drug concentration-time curve consistent with the typical two-compartment model. Tmax1, 1.3 h, Cmax1 is […]. […] The apparent distribution volume (Vd) 42 L, mainly distributed in body fluid (BA-j Vd 12.6 L, mainly distributed in blood. See Fitoterapia, 2015, 107: 36-34)
FIG. 5: The concentration of urine drug concentration-time curve in monkey (n=6) by CH-j oral 5 mg/kg, X-coordinate is oral CH-j time (h) and Y-coordinate is the concentration of CH-j (μM).

log P in Octanol/Water = type: physicochemical; details: Octanol/Water at 37° C.
Experimental: The solubility and log P of acetyl ChrysinMannich base derivatives see TABLE 1.
(§1) CH-j is pKa 5.3, log P 1.63 in Octanol/Water at 37° C. […] (BA-j 77m/ml). CH-j belongs to BCS II (low solubility, high permeability) and solubility presents the pH dependence. […] CH-j is a pH dependent fast release. […] It is speculated that CH-j has more appropriate log P and solubility with more likely entering tissue cells than others solubility acetyl Chrysin Mannich base derivatives.
(§2) (about 20 times BA-f 277 μg/ml) and 564 μg/ml in water at 37° C. (about 1000 times BA-f 0.53m/ml). CH-f is BCS I (high solubility and permeability) and solubility presents the pH dependence. It is speculated that CH-f has more appropriate log P and solubility with entering systemic (blood system and tissue cells) than others solubility acetyl Chrysin Mannich base derivatives.

[2] = system: PBMCs, activated lymphocytes, human normal Liver cells; assay: H2O2 level in blood and normal cells, PF1-H2O2 fluorescent probe; type: cell-based; details: CH-j: PBMCs and activated lymphocytes; BA-j: activated lymphocyte
Experimental: The cells are cancer cells (MCF-7, GBC-823, Hep G2) and normal cells (Liver, COS-7, PBMCs). According to the literature [Scientific Reports, 2015, 5: 13626; Anti-cancer Agents in Medicinal Chemistry, 2016, 16: 914-924.], in vitro cultured cells was given to CH-j 25 μM for 3.5 h, added PF1-H2O2 selective fluorescence probe 10 μM for 0.5 h and detected the concentration of H2O2 in cells, and performed fluorescence imaging by results shown in FIG. 1.
FIG. 1-3, FIG. 1-4, The fluorescence imaging by PF1-H2O2 10 μM is that CH-j […] for 4 h affected the level of H2O2 in MCF-7, GBC-823, Hep G2 and Liver.
FIG. 1-3: CH-j/BA-j affects the levels of H2O2 in blood cells, X-coordinate is the concentration of CH-j/BA-j concentration (μM), and Y-coordinate the intracellular levels of H2O2 (μM) for 4 h with PF1-H2O2 10 μM by Fluorescence Microplater Reader (488 nm/525 nm).

Bcl-2 = Bcl-2 expression in MCF-7; type: cell-based; details: 10 μM for 24 h
[3] = Tissue distribution in rat, 2 h; type: in vivo
Experimental: The distribution results of CH-j tissue distribution were shown in FIG. 6, when CH-j 100 mg/kg rat by venous intravenous (i.v.) or oral (p.o.) 2 h. […] CH-j by oral in the stomach concentration of the large, about 2 time higher than other tissues. […] Compared with the intravenous administration, the oral administration was completely absorbed and the bioavailability was close to 100%.
FIG. 6: 2 h distribution of the drug (100 mg/kg) by CH-j rats: Y-coordinate is the concentration of CH-j (μg/g), by intravenous (i.v.), by oral (p.o.).

BGC-823 = assay: Annexin V-FITC-PI double fluorescence, apoptosis and necrosis; type: cell-based; details: 24 h
Source text: There is a series of morphological characteristic changes in the apoptosis of cells, in which the change of the plasma membrane is one of the characteristics of early apoptosis. The cytoplasm is flipped from the inside of the cytoplasm to the outer surface of the cell when the cell apoptosis, Annexin V is a Ca^++ dependent phospholipid binding protein, which has a high affinity with phospholipid-peptide-serine, which can be combined with the phospholipid peptide specificity that is exposed to the extracellular cells. However, cytoplasm transfer to cell membrane is not unique to apoptosis, but also can occur in cell necrosis. The difference between the two cell death modes is that the cell membrane is intact in the initial stage of apoptosis, and the integrity of the cell membrane in its early stage is destroyed. PI is a nucleic acid dye that cannot pass through the intact cell membrane, but in the cell and necrotic cells in the middle and late stage of apoptosis, the PI can dye the nucleus through the cell membrane. Annexin V-FITC-PI was used to detect apoptosis and necrotic cell ratio on flow cytometry.
A relatively small increase in apoptotic cells is increased.
FIG. 3-3 Annexin V-FITC/PI staining results for BGC-823.

pKa = type: physicochemical
Experimental: as §1, §2

MCF-7 = assay: Autophagy in MCF-7; type: cell-based; details: 50 μM for 9 h and 24 h
MCF-7 and COS-7 = assay: .OH level, CCy-OH fluorescent probe imaging; type: cell-based; details: 12.5 μM for 5 h
[4] = oral 5 mg/kg, monkey, urine drug concentration
[5] = oral, monkey (n = 6), 3 mg/kg in Table 4, 5 mg/kg in text

- Maximum drug concentration, times higher than Chrysin ([1]; monkey, in vivo): about 40 times
- Cmax1 [1, 4]: 26.4 µM
- Cmax2, redistributive period [1, 4]: 13.2 µM
- V d [1, 5]: 42 L
- t1/2β [1, 5]: 6.2 h
- Tmax ([1]; rhesus, monkey, urine, monkey (n = 6), 3 mg/kg in Table 4, 5 mg/kg in text, read-out: T max (Tmax1)): 1.3 h
- Tmax ([1]; rhesus, monkey, urine, monkey (n = 6), 3 mg/kg in Table 4, 5 mg/kg in text, read-out: T max, redistributive period (Tmax2)): 9 h
- concentration at 24 h ([1]; rhesus, urine, oral 5 mg/kg, monkey): < 3 µM
- Cmax ([1]; rhesus, urine, oral, monkey (n = 6), 3 mg/kg in Table 4, 5 mg/kg in text): 26.4 µM
- log P (log P in Octanol/Water): 1.64
- logP (log P in Octanol/Water; octanol/water): 1.63
- Concentration in the stomach relative to other tissues ([3]; 100 mg/kg rat, oral, 2 h): about 2 time
- bioavailability ([3]; in vivo, rat 100 mg/kg, oral compared with intravenous): ~100%
- Blood-brain barrier passage ([3]; rat 100 mg/kg, 2 h): able to pass the blood-brain barrier
- pKa (pKa): 5.3
Structure (SMILES): CC(=O)c1c(O)c(CN2CCC(O)CC2)c2oc(-c3ccccc3)cc(=O)c2c1O [CH-j, 6-Acetyl-5,7-dihydroxy-8-(4-hydroxy-piperidin-1-ylmethyl)-2-phenyl-chromen-4-one]
- Dose dependence of H2O2 level [2]: no significant dose-dependent manner
- Bcl-2 expression (Bcl-2): Bcl-2 expression can be suppressed
- Detection of prototype drug in blood, urine, tissues ([3]; rat): In the blood, urine, bile and tissues, the prototype drugs and metabolites can be detected
- Apoptosis and necrosis by Annexin V-FITC-PI (BGC-823): induce apoptosis the BGC-823 with obvious dose-dependent manner
- Autophagy (MCF-7): can cause autophagy
- Level of .OH, red fluorescence (MCF-7 and COS-7): present red fluorescence in MCF-7 and no in COS-7
